Experimental data from article PMC7153278, “Discovery of Membrane-Bound Pyrophosphatase Inhibitors Derived from an Isoxazole Fragment” (ACS Medicinal Chemistry Letters, 2020).

Experiment: Colloidal aggregation under TmPPase assay conditions (nephelometry)
Format: physicochemical
Description: Aggregation data for 5, 12k and 12l (Figure S1)
Potential colloidal aggregation in the TmPPase model system was studied at five concentrations (50 µM, 25 µM, 10 µM, 5 µM, and 1 µM). The original assay conditions were simulated, and the light scattering of potential aggregates in the mixture was studied by nephelometric methods using Nepheloskan Ascent® (Labsystems, Finland). Aggregation of the blank and compounds 5, 12k and 12l were measured as triplicates from one independent experiment at three different voltages (300 V, 400 V and 500 V) at room temperature.
5 µM and 1 µM concentrations the obtained values were close to those observed by the blank, thereby […]
Figure S1. Aggregation data for compounds 5, 12k and 12l. The data, measured in relative nephelometric units (RNU), is shown as the mean ± SD and normalized to the blank.
(1 picture or pasted object on this page, not shown here)
Experimental procedures and characterization data
Commercial analogues were retrieved by screening the ZINC12 database1 (clean drug-like subset; downloaded on 27.04.2016) using a KNIME2 workflow connected to the RDKit3 nodes. The SAR analyses and docking studies (data not shown) underlying this work were conducted using the Schrödinger molecular modeling platform (Canvas and Glide modules, respectively)4 .
Compounds 1–7, 13–20 and 24 were obtained from commercial suppliers. Supporting Information, Table S1 summarizes the compounds tested. Compound purity was >95% as determined by LC-MS and characterized by HRMS. For all commercial compounds after the initial screen, purity was tested independently from the vendor specification (a few compounds of lower purity are reported only in Supporting Information). To evaluate potential aggregation of samples in the TmPPase based assay, aggregate formation in the assay conditions was studied at five concentrations (50 μM, 25 μM, 10 μM, 5 μM, and 1 μM) for compounds 5, 12k and 12l (Figure S1).
All chemicals used were commercially available. Reactions using anhydrous conditions were conducted in oven-dried (130 °C, >24 h) glassware, purged with argon prior to use. Microwave reactions were performed using a Biotage Initiator+ instrument (Uppsala, Sweden). The progress of the reactions was monitored by thin-layer chromatography on silica gel 60-F254 aluminum plates and visualized by using a dual short/long wave (254/366 nm) UV lamp. The combined organic solutions from extractions were dried over anhydrous Na2SO4, filtered and concentrated with a rotary evaporator at reduced pressure. Flash SiO2 column chromatography was performed with automated high performance flash chromatography, Biotage Isolera™ Spektra Systems with ACI™ and Assist (ISO-1SW Isolera One) equipped with a variable UV-VIS (200–800 nm) photodiode array (Uppsala, Sweden) using SNAP KP-SIL/Ultra 10 g or 25 g cartridges and the indicated mobile phase gradient.
The reactions were not optimized and all the yields are given for purified products.
Characterization of the synthesized products were done by NMR and MS analysis. 1H and 13C NMR spectra were acquired at 298 K on a Bruker Ascend 400 MHz – Avance III HD NMR spectrometer (Bruker Corporation, Billerica, MA, USA). Chemical shifts (δ) are reported in parts per million (ppm) relative to the residual solvent signals: CDCl3 7.26 and 77.16 ppm, CD3OD 3.31 and 49.00 ppm, DMSO-d6 2.50 and 39.52 ppm for 1H and 13C NMR, respectively. […] High resolution mass (HRMS-ESI) data was reported for the calculated and experimentally […]

SMILES: CC(C)(C)c1cc(-c2cc(C(=O)Oc3ccccc3Br)no2)cc(C(C)(C)C)c1 [Compound 12l]
- aggregation (light scattering) (at 10 µM, 5 µM and 1 µM): only minor/no detectable aggregation
- aggregation (light scattering) (at 50 µM and 25 µM): showed aggregate formation
